From patent US7517877B2, “5-substituted-alkylaminopyrazole derivatives as pesticides” (Merial Limited, priority 2002, dated 2009)

What was measured:
[1] = tested on: Nephotettix cinciceps (Rice Leafhopper); assay: Method C: Nephotettix cinciceps (Rice Leafhopper) screen, dipped rice plants; type: in vivo, Nephotettix cincticeps; conditions: 144 h, test concentration of 100 ppm, L3 larvae, after 6 days storage
Description: Method C: Nephotettix Cinciceps (Rice Leafhopper) Screen
The leaves of 12 rice plants having a stem length of 8 cm were dipped for 5 seconds into an aqueous solution of the formulated test compound. After the solution had run off, the rice plants treated in this manner were placed in a Petri dish and populated with about 20 larvae (L3 stage) of Nephotettix cincticeps. The Petri dish was closed and then stored in a climate chamber (16 hours of light/day, 25° C., 40-60% relative humidity). After 6 days storage, the percentage mortality of leafhopper larvae was determined.

| Compound | melting point | mortality at 100 ppm [1] |
| --- | --- | --- |
| CCSCCCNc1c(S(=O)(=O)C(F)(F)F)c(C#N)nn1-c1c(Cl)cc(C(F)(F)F)cc1Cl [Compound 1-14, 1-(2,6-dichloro-4-trifluoromethylphenyl)-3-cyano-5-(3-ethylthiopropylamino)-4-trifluoromethylsulfonylpyrazole] | 80 °C | – |
| [O-][S+](C1CCSC1)C1CCSC1 (stereo not drawn) [Compound 1-37, 3-tetrahydrothienyl sulfoxide] | – | ≥ 98% |
| CCSCCCN(C)c1c(S(=O)(=O)C(F)(F)F)c(C#N)nn1-c1c(Cl)cc(C(F)(F)F)cc1Cl [Compound 2-14, 1-(2,6-dichloro-4-trifluoromethylphenyl)-3-cyano-5-[N-(3-ethylthiopropyl)-N-methylamino]-4-trifluoromethylsulfonylpyrazole] | 89 °C | – |
